Patent publication US20090233966A1, “Analogues of the Azinomycins as Anti-Tumour Agents and as Prodrugs” (School of Pharmacy, University of London, priority 2005, published 2009)
“Also recorded” adds a separate entry of the source. Read-outs that look alike come from different tables or passages of the source.

Legend:
Assay type in all cases: cell-based, human
[1] = test system: NCl 60 cell panel; assay: NCI 60 cell line panel antitumour activity (whole panel); settings: for GI50: MGMID line of the panel, read-out: anti-tumour activity GI50, MGMID; for antitumour activity in the NCl 60 cell line panel (in words): wide range of human tumour cell lines
Description: (§1) Examples 6 and 7 make use of the NCl 60 cell panel. This is an in vitro cell line screening project providing direct support to the National Cancer Institute's USA Developmental Therapeutic Programme for anti cancer discovery. The methodolgy for the cell line's operation is described by Boyd et al in Drug Development Research 1995, 34, 91-109.

[2] = test system: COLO 205; assay: NCI 60 cell panel growth inhibition; settings: COLON, read-out: anti-tumour activity GI50
Description: as §1

[3] = test system: HCC2998; assay: NCI 60 cell panel growth inhibition; settings: read-out: anti-tumour activity GI50
Description: as §1

[4] = test system: SF-268; assay: NCI 60 cell panel growth inhibition; settings: CNS, read-out: anti-tumour activity GI50
Description: as §1

[5] = test system: MDA-MB-231/ATCC; assay: NCI 60 cell panel growth inhibition; settings: BREAST, read-out: anti-tumour activity GI50
Description: as §1

[6] = test system: OVCAR-8; assay: NCI 60 cell panel growth inhibition; settings: OVAR, read-out: anti-tumour activity GI50
Description: as §1

[7] = test system: RPMI-8226; assay: NCI 60 cell panel growth inhibition; settings: Leukemia, read-out: anti-tumour activity GI50
Description: as §1

[8] = test system: SNB-19; assay: NCI 60 cell panel growth inhibition; settings: CNS, read-out: anti-tumour activity GI50
Description: as §1

[9] = test system: DU-145; assay: NCI 60 cell panel growth inhibition; settings: PROST, read-out: anti-tumour activity GI50
Description: as §1

[10] = test system: HL-60(TB); assay: NCI 60 cell panel growth inhibition; settings: Leukemia, read-out: anti-tumour activity GI50
Description: as §1

[11] = test system: HS 578T; assay: NCI 60 cell panel growth inhibition; settings: BREAST, read-out: anti-tumour activity GI50
Description: as §1

[12] = test system: TK10; assay: NCI 60 cell panel growth inhibition; settings: read-out: anti-tumour activity GI50
Description: as §1

[13] = test system: KM12; assay: NCI 60 cell panel growth inhibition; settings: COLON, read-out: anti-tumour activity GI50
Description: as §1

[14] = test system: BT-549; assay: NCI 60 cell panel growth inhibition; settings: BREAST, read-out: anti-tumour activity GI50
Description: as §1

[15] = test system: PC-3; assay: NCI 60 cell panel growth inhibition; settings: PROST, read-out: anti-tumour activity GI50
Description: as §1

[16] = test system: SK-MEL-28; assay: NCI 60 cell panel growth inhibition; settings: MELAN, read-out: anti-tumour activity GI50
Description: as §1

[17] = test system: SKOV-3; assay: NCI 60 cell panel growth inhibition; settings: read-out: anti-tumour activity GI50
Description: as §1

[18] = test system: T-47D; assay: NCI 60 cell panel growth inhibition; settings: BREAST, read-out: anti-tumour activity GI50
Description: as §1

[19] = test system: SF-295; assay: NCI 60 cell panel growth inhibition; settings: CNS, read-out: anti-tumour activity GI50
Description: as §1

[20] = test system: HOP-62; assay: NCI 60 cell panel growth inhibition; settings: NSCLC, read-out: anti-tumour activity GI50
Description: as §1

[21] = test system: ACHN; assay: NCI 60 cell panel growth inhibition; settings: RENAL, read-out: anti-tumour activity GI50
Description: as §1

[22] = test system: OVCAR-3; assay: NCI 60 cell panel growth inhibition; settings: OVAR, read-out: anti-tumour activity GI50
Description: as §1

[23] = test system: NCI-H460; assay: NCI 60 cell panel growth inhibition; settings: NSCLC, read-out: anti-tumour activity GI50
Description: as §1

[24] = test system: NCI-H522; assay: NCI 60 cell panel growth inhibition; settings: NSCLC, read-out: anti-tumour activity GI50
Description: as §1

[25] = test system: MCF7; assay: NCI 60 cell panel growth inhibition; settings: BREAST, read-out: anti-tumour activity GI50
Description: as §1

[26] = test system: SF-539; assay: NCI 60 cell panel growth inhibition; settings: CNS, read-out: anti-tumour activity GI50
Description: as §1

[27] = test system: CAKI-1; assay: NCI 60 cell panel growth inhibition; settings: RENAL, read-out: anti-tumour activity GI50
Description: as §1

[28] = test system: MALME-3M; assay: NCI 60 cell panel growth inhibition; settings: MELAN, read-out: anti-tumour activity GI50
Description: as §1

[29] = test system: 786-0; assay: NCI 60 cell panel growth inhibition; settings: RENAL, read-out: anti-tumour activity GI50
Description: as §1

[30] = test system: A549/ATCC; assay: NCI 60 cell panel growth inhibition; settings: NSCLC, read-out: anti-tumour activity GI50
Description: as §1

[31] = test system: OVCAR-4; assay: NCI 60 cell panel growth inhibition; settings: OVAR, read-out: anti-tumour activity GI50
Description: as §1

[32] = test system: RXF 393; assay: NCI 60 cell panel growth inhibition; settings: RENAL, read-out: anti-tumour activity GI50
Description: as §1

[33] = test system: CCRF-CEM; assay: NCI 60 cell panel growth inhibition; settings: Leukemia, read-out: anti-tumour activity GI50
Description: as §1

[34] = test system: IGROV1; assay: NCI 60 cell panel growth inhibition; settings: read-out: anti-tumour activity GI50
Description: as §1

[35] = test system: LOX IMVI; assay: NCI 60 cell panel growth inhibition; settings: MELAN, read-out: anti-tumour activity GI50
Description: as §1

[36] = test system: SW-620; assay: NCI 60 cell panel growth inhibition; settings: COLON, read-out: anti-tumour activity GI50
Description: as §1

[37] = test system: A498; assay: NCI 60 cell panel growth inhibition; settings: RENAL, read-out: anti-tumour activity GI50
Description: as §1

[38] = test system: EKVX; assay: NCI 60 cell panel growth inhibition; settings: NSCLC, read-out: anti-tumour activity GI50
Description: as §1

[39] = test system: K562; assay: NCI 60 cell panel growth inhibition; settings: Leukemia, read-out: anti-tumour activity GI50
Description: as §1

[40] = test system: UCC-62; assay: NCI 60 cell panel growth inhibition; settings: MELAN, read-out: anti-tumour activity GI50
Description: as §1

[41] = test system: NCI-H322M; assay: NCI 60 cell panel growth inhibition; settings: NSCLC, read-out: anti-tumour activity GI50
Description: as §1

[42] = test system: SK-MEL-2; assay: NCI 60 cell panel growth inhibition; settings: MELAN, read-out: anti-tumour activity GI50
Description: as §1

[43] = test system: M14; assay: NCI 60 cell panel growth inhibition; settings: MELAN, read-out: anti-tumour activity GI50
Description: as §1

[44] = test system: HOP-92; assay: NCI 60 cell panel growth inhibition; settings: NSCLC, read-out: anti-tumour activity GI50
Description: as §1

[45] = test system: U251; assay: NCI 60 cell panel growth inhibition; settings: read-out: anti-tumour activity GI50
Description: as §1

For `C=C(C)[C@H](OC(=O)c1cc(OC)cc2c(C)cccc12)C(=O)NCCN1CCCC(Cl)C1` (some centres unmarked) [Compound 21], the GI50 ([1]; Homo sapiens, 60 cell) was 5.12 µM, the “antitumour activity in the NCl 60 cell line panel (in words)” value [1] was “significant cytotoxicity in the low micromolar range” and the GI50 ([2]; Homo sapiens) was 6.08 µM. It also gave a GI50 ([3]; Homo sapiens, HCC 2998, COLON) of 4.27 µM, a GI50 ([4]; Homo sapiens) of 11.9 µM and a GI50 ([5]; Homo sapiens) of 11 µM. The GI50 ([6]; Homo sapiens) was 32.9 µM, the GI50 ([7]; Homo sapiens) was 3.43 µM and the GI50 ([8]; Homo sapiens) was 5.63 µM. It also gave a GI50 ([9]; Homo sapiens) of 5.15 µM, a GI50 ([10]; Homo sapiens) of 12.1 µM and a GI50 ([11]; Homo sapiens) of 3.69 µM. For the same compound, the GI50 ([12]; Homo sapiens, TK-10, RENAL) was 12.1 µM, the GI50 ([13]; Homo sapiens) was 9.3 µM and the GI50 ([14]; Homo sapiens) was 4.55 µM. It also gave a GI50 ([15]; Homo sapiens) of 7.96 µM, a GI50 ([16]; Homo sapiens) of 8.48 µM and a GI50 ([17]; Homo sapiens, SK-OV-3, OVAR) of 17.2 µM. For the same compound, the GI50 ([18]; Homo sapiens, T47D) was 10.8 µM, the GI50 ([19]; Homo sapiens) was 4.35 µM and the GI50 ([20]; Homo sapiens) was 3.45 µM. The GI50 ([21]; Homo sapiens) was 1780 nM, the GI50 ([22]; Homo sapiens) was 10.2 µM and the GI50 ([23]; Homo sapiens) was 6.26 µM. The GI50 ([24]; Homo sapiens) was 5.1 µM, the GI50 ([25]; Homo sapiens) was 4.62 µM and the GI50 ([26]; Homo sapiens) was 0.45 µM. The GI50 ([27]; Homo sapiens) was 5.66 µM, the GI50 ([28]; Homo sapiens) was 7.51 µM and the GI50 ([29]; Homo sapiens) was 4.48 µM. It also gave a GI50 ([30]; Homo sapiens) of 8.26 µM, a GI50 ([31]; Homo sapiens) of 20.9 µM and a GI50 ([32]; Homo sapiens) of 19.1 µM. The GI50 ([33]; Homo sapiens) was 3.24 µM, the GI50 ([34]; Homo sapiens, IGROV-1, OVAR) was 4.21 µM and the GI50 ([35]; Homo sapiens) was 2.84 µM. For the same compound, the GI50 ([36]; Homo sapiens) was 2.76 µM, the GI50 ([37]; Homo sapiens) was 0.19 µM and the GI50 ([38]; Homo sapiens) was 11.4 µM. The GI50 ([39]; Homo sapiens) was 5.16 µM, the GI50 ([40]; Homo sapiens, 60 cell) was 4.41 µM and the GI50 ([41]; Homo sapiens) was 8.07 µM. It also gave a GI50 ([42]; Homo sapiens) of 7.81 µM, a GI50 ([43]; Homo sapiens) of 1.75 µM and a GI50 ([44]; Homo sapiens) of 4.12 µM. For the same compound, the GI50 ([45]; Homo sapiens, U-251, CNS) was 2.63 µM.
With `COc1cc(C(=O)OC(C(=O)NCCN2CCCC(Cl)C2)C2(C)CO2)c2cccc(C)c2c1` (centres unmarked) [Compound 20] the GI50 [1] was 12.3 µM, the “antitumour activity in the NCl 60 cell line panel (in words)” value [1] was “low micromolar to high nanomolar activity; also recorded: significant cytotoxicity in the low micromolar range” and the GI50 [2] was 13.8 µM. It also gave a GI50 ([3]; COLON) of 8.25 µM, a GI50 [4] of 16.6 µM and a GI50 [5] of 14 µM. It also gave a GI50 [6] of 44.5 µM, a GI50 [7] of 4.18 µM and a GI50 [8] of 14.3 µM. It also gave a GI50 [9] of 4.49 µM, a GI50 [10] of 6.98 µM and a GI50 [11] of 17.5 µM. The GI50 ([12]; RENAL) was 23.4 µM, the GI50 [13] was 14.5 µM and the GI50 [14] was 12.5 µM. The GI50 [15] was 11.2 µM, the GI50 [16] was 11.6 µM and the GI50 ([17]; OVAR) was 19.7 µM. It also gave a GI50 [18] of 23 µM, a GI50 [19] of 13.1 µM and a GI50 [20] of 100 µM. It also gave a GI50 [21] of 1170 nM, a GI50 [22] of 18.6 µM and a GI50 [23] of 13 µM. It also gave a GI50 [24] of 7.77 µM, a GI50 [25] of 14.7 µM and a GI50 [26] of 6.27 µM. The GI50 [27] was 10.3 µM, the GI50 [28] was 14.8 µM and the GI50 [29] was 100 µM. It also gave a GI50 [30] of 31.1 µM, a GI50 [31] of 21.5 µM and a GI50 [32] of 17.5 µM. It also gave a GI50 [33] of 3.26 µM, a GI50 ([34]; OVAR) of 12.1 µM and a GI50 [35] of 3.62 µM. The GI50 [36] was 5.26 µM, the GI50 [37] was 17.7 µM and the GI50 [38] was 17.5 µM. It also gave a GI50 [39] of 8.33 µM, a GI50 [40] of 14.7 µM and a GI50 [41] of 17.9 µM. It also gave a GI50 [42] of 18.6 µM, a GI50 [43] of 100 µM and a GI50 [44] of 13.8 µM. It also gave a GI50 ([45]; CNS) of 7.82 µM.
